Assay results from patent publication US11560546B2, “Methods for neural conversion of human embryonic stem cells” (MEMORIAL SLOAN KETTERING CANCER CENTER, priority 2009, dated 2023).
Where a name gives a salt, the structure may show the parent alone.

Assays:
hESCs [1] = assay: Neural induction of hESC under adherent conditions, PAX6 expression; type: cell-based, human; settings: 10 uM to 30 nM, each added to 10 uM of SB431542
Experimental: The inventors contemplated that establishing an even cell distribution is critical for inducing homogenous neural differentiation of hESCs. To this end, undifferentiated hESC were dissociated into single cells and re-plated onto Matrigel coated dishes in conditioned medium supplement with ROCK inhibitor, Y-27632 (Wananabe et at, 2007). After 72 hours cells were switched from hESC conditions to knock-out serum replacement medium (KSR) containing either Noggin, SB4315242, or both factors and allowed to differentiate for a total of 11 days (FIG. 1.a.). […] Neural induction was monitored by expression of PAX6, an early marker of neuroectodermal differentiation ([…], et al., Annu Rev Neurosci 20:483 (1997). As an alternative to the specific Smad inhibitors used here, it is possible to block both distinct Smad pathways using alternative inhibitors or mechanisms. Dorsomorphin is a small molecule alternative to Noggin, targeting the same pathway. Concentrations ranged from 10 uM to 30 nM, each individual amount added to 10 uM of SB431542. […] Quantitative Real-Time (Dual SMAD). […] For each sample, 1 ug of total RNA was treated for DNA contamination and reverse transcribed using the Quantitect RT kit (Qiagen). Amplified material was detected using Quantitect SYBR green probes and PCR kit (Qiagen) on a Mastercycler RealPlex2 (Eppendorf). […]

[2] = system: NSB derived neural precursor cells; assay: Conditioned media patterning of naive neural progenitor cells, qRT-PCR; type: cell-based, human
From the text: The FP has important functional roles during development in neural patterning and axonal path finding (Jessell, 2000). To assess the functional properties of hESCs derived FP conditioned media was isolated at days 9 and 11 and tested for expression of Netrin-1 in the medium using ELISA (FIG. 3A). Under normal NSB conditions, Netrin-1 is detectable at Day 9 and decreases at Day 11 while in the NSB+SHH condition, there is a 3.5 fold increase in Netrin-1 levels, increasing at Day 11 (FIG. 3B). SHH is a critical patterning factor secreted by FP cells and specifying ventral cell types in a dose-dependent manner. To test if hESCs derived FP secretes factors that can specify ventral precursor domains, conditioned media (CM) was isolated at Days 9 and 11 of the differentiation. At Day 6, exogenous SHH was removed and cultures were washed to eliminate any exogenously added SHH from the medium. Naïve neural progenitor cells were isolated at Day 11 of the control (NSB) protocol and cultured with either NSB CM or FP CM. After Day 5 of culture in the presence of CM, the inventors probed for the expression of ventral precursor markers and expression of the SHH responsive gene GLI2. […] Increase in the expression of ventral markers was confirmed at the level of protein (FIG. 3C′).

hESCs [3] = assay: Floor plate induction in NSB protocol, FOXA2 immunostaining; type: cell-based, human; settings: NSB protocol
Experimental: (§1) For MS5 induction, established methods previously reported were used (Perrier et al., 2004). Feeder free neural induction was carried out as previously described (Chambers et al., 2009). Briefly, hESCs cultures were disaggregated using accutase for 20 minutes, washed using hESCs media and pre-plated on gelatin for 1 hour at 37° C. in the presence of ROCK inhibitor to remove MEFs. The nonadherent hESCs were washed and plated on matrigel at a density of 20,000 cells/cm2 on matrigel (BD) coated dishes in MEF conditioned hESCs media (CM) spiked with 10 ng/mL of FGF-2 and ROCK-inhibitor. The ROCK inhibitor was withdrawn, and hESCs were allowed to expand in CM for 3 days or until they were nearly confluent. The initial differentiation media conditions included knock out serum replacement (KSR) media with […] TGF-b inhibitor (SB431542, Tocris) and 500 ng/mL of Noggin (R&D). Upon day 5 of differentiation, increasing amounts of N2 media (25%, 50%, 75%) was added to the KSR media every two days while maintaining 500 ng/mL of Noggin and TGF-b inhibitor. For FP induction, Sonic C25II was added at 200 ng/ml.
Tissue was fixed using 4% paraformaldehyde and Picric acid for 15 minutes, washed with PBS, permeablized using 0.3% Triton X in PBS, and blocked using 10% Donkey Serum. Primary antibodies used for microscopy included PAX6 (Covance), TUJ1 (Covance), ZO1 (Zymed), BF1 (FOXG1, gift E.Lai), TH (Pelfreez), NKX6.1 (DSHB) and FOXA2 (SantaCruz).
Using this protocol, in combination with compositions and methods of the present inventions, the inventors aimed to optimize FP differentiation by adding Sonic C25II at different time points during neural induction and assaying for FOXA2 expression. Differentiation was initiated upon NSB exposure, and Sonic C25II was added at Day 1, Day 3, Day 5, or Day 7 (FIG. 2A).

[4] = most functional assays; cited from earlier work
[5] = system: rosette-stage neural cells; assay: Floor plate induction in stromal-feeder (MS5) derived / rosette-stage neural cells; type: cell-based, human
Experimental: as §1
hESC derived neural cells at the rosette stage were differentiated into both CNS and PNS progeny and patterned towards multiple cells fates along the A/P and D/V axis (Elkabetz et al., 2008). […] Specification of progenitor cells into FP tissue and cells during mouse development was thought to depend on SHH signaling within early neural lineages. The inventors tested whether rosette-stage neural cells were competent to undergo FP specification in response to SHH. High concentrations of SHH were needed to induce FP during mouse development (Roelink et al., 1994; Ericson et al., 1996). Recombinant N-terminal SHH has a limited activity range due to the lack of posttranslational modifications required for full SHH action. Recently, a modified version of recombinant SHH became available where SHH was tethered to two Isoleucines (Sonic C25II, R&D Systems), mimicking more closely the potency of mammalian SHH protein.
The majority of cells retained rosette cytoarchitecture and staining for the AN marker BF1 as described previously (FIG. 1A) (Elkabetz et al., 2008).
Based on the hypothesis that FP specification in the mouse occurs at early developmental stages, at the time of or prior to neural induction, the inventors repeated SHH induction studies at Day 9, the time of rosette specification, using classic stromal-feeder mediated neural induction protocols (Elkabetz et al., 2008). Under this paradigm the inventors noticed a drastic change in cell morphology restricted to the cells treated with SHH-C25II (FIG. 1B).

DKK-1 = DKK-1 transcript (qPCR) and protein in medium (ELISA); type: cell-based, human; settings: as early as 2 days post treatment
hESCs [6] = assay: qRT-PCR of FP, AN and regional markers during FP induction; type: cell-based, human
Experimental: as §1
Total RNA was extracted using an RNeasy kit (Qiagen). For each sample, 1 ug of total RNA was treated for DNA contamination and reverse transcribed using the Superscript III (Invitrogen). Amplified material was detected using Taqman probes and PCR mix (ABI) on a Mastercycler RealPlex2 (Eppendorf). All results were normalized to a HPRT control and are from 3 technical replicates of 3 independent biological samples at each data point.
FOXA2 is a key marker of FP development. However, FOXA2 is also highly expressed in the endoderm. To further characterize the hESC derived putative FP tissue, the inventors performed qRT-PCR analyses for candidate markers at Day 11. […] The inventors further characterized the nature of FOXA2+ putative FP cells using a panel of neural precursor, glial, neuronal and non-neural markers (FIG. 7). […] To distinguish FOXA2 expression in hESC derived FP versus endoderm tissue, the inventors differentiated hESCs to endoderm (D'Amour et al., 2005).
To gain further insight into the factors critical for human FP specification, high resolution temporal gene expression profiles of candidate markers were performed at 6 time points during the 11 day protocol.
The inventors contemplated the use of SIX6 as a putative marker of anterior FP identity. Thus SIX6 status of the hESC derived FP was used to mark respecification in response to known caudalizing agents such as FGF8, Wnt-1, and Retinoic Acid. Each of these caudalizing factors was added in combination with SHH and the resulting tissue was assessed for expression of the FP markers FOXA2 and NETRIN-1, the AN marker BF1, and putative anterior FP marker SIX6.

hESCs [7] = assay: Placode induction from hESC (Six1 immunocytochemistry, qRT-PCR); type: cell-based, human; settings: early addition to SB431542 (1 μM) treated hESCs
From the text: Sensory placodes are developmental structures formed at the interface of early neuroectodermal and non-neural ectoderm tissue. To address whether the N-SB culture system is suitable for the derivation of placodal cells, The inventors first established a set of markers to identify placode identity in human embryonic stem cells (hESCs)-derived cultures. From studies in other model organisms, The inventors postulated a number of candidate markers to identify human placodal precursor during hESC differentiation including member of the Six, Eya, and Dlx family of transcription factors. Six1 marks the pre-placodal region and placodal cells in model organisms but is also expressed in skeletal muscle precursors.
276(1): p. 1-15, herein incorporated by reference. To test whether addition of exogenous BMPs enhances the derivation of Six1+ cells, The inventors exposed SB431542 (1 μM) treated hESCs to various concentration of BMP4. […] 27(3): p. 275-80; Xu, et al., Nat Biotechnol, 2002. 20(12): p. 1261-4, herein incorporated by reference.
We next explored whether simple withdrawal of the BMP inhibitor noggin during N-SB differentiation may enhance the emergence of placodal fates by de-repressing endogenous BMP signaling. […]

Molecule: c1cc(-c2cnn3cc(-c4ccc(OCCN5CCCCC5)cc4)cnc23)ccn1 [Dorsomorphin, 6-[4-[2-(1-Piperidinyl)ethoxy]phenyl]-3-(4-pyridinyl)-pyrazolo[1,5-a]pyrimidine dihydrochloride]
- efficiency of neural induction based on the percentage of PAX6+ cells (hESCs [1]): not as high as used with Noggin/SB431542

Molecule: CC1=C2C[C@H]3[C@@H](CC=C4C[C@@H](O)CC[C@@]43C)[C@@H]2CC[C@]12O[C@@H]1C[C@H](C)CN[C@H]1[C@H]2C [cyclopamine]
- NKX2.1, NKX6.1 and GLI2 expression induced by FP conditioned media [2]: significantly reduced

Molecule: Sonic C25II: modified recombinant SHH tethered to two Isoleucines (R&D Systems); 'SHH' in FP induction examples, added at 200 ng/ml
- FOXA2 yield with extended treatment beyond Day 11 (hESCs [3]): did not increase FOXA2 yield
- FOXA2+ cells (of total cells) (hESCs [3]; added starting at day 1): about 65%
- potency relative to non-modified N-terminal SHH [4]: ~10 times
- concentrations achieving induction of FOXA2+ cells and decrease in BF1 and PAX6 ([5]; added at Day 9, stromal-feeder neural induction): 125 to 500 ng/mL
- induction of FOXA2+ cells ([5]; added at Day 9, stromal-feeder neural induction, Day 21): robust upregulation of FOXA2+
- FP marker (FOXA2) expression on established rosette-stage neural cells ([5]; dose-response, added at Day 15): did not yield cells expressing FP markers
- DKK-1 mRNA and protein levels (DKK-1): drastic reduction
- increase in SIX6 mRNA levels (hESCs [6]; Day 5 of differentiation, FP induction versus NSB control): About 50,000 fold
- PAX6 and BF1 expression (hESCs [6]; day 7, versus NSB): drastic reduction in PAX6 and BF1

B1: BMP4: bone morphogenetic protein-4, exogenous BMP (protein, UniProt P12644 293-408, looked up)
Bone morphogenetic protein 4: SPKHHSQRARKKNKNCRRHSLYVDFSDVGWNDWIVAPPGYQAFYCHGDCPFPLADHLNSTNHAIVQTLVNSVNSSIPKACCVPTELSAISMLYLDEYDKVVLKNYQEMVVEGCGCR
- cdx2 induction / trophoectodermal differentiation (hESCs [7]): induction of cdx2
